From patent US7511145B2 (Genelabs Technologies, Inc., priority 2003, dated 2009)

Molecular target: T1, HCV-NS5b (Hepatitis C virus genotype 1b, UniProt Q9WMX2)
T1 construct: (His)6 (C); made in house; host or cells: XL-1 cells (E. coli), IPTG-inducible plasmid, nickel-NTA purification
Assay: HCV-NS5b enzyme assay (incorporation of radiolabeled UTP)
Type: biochemical
Conditions: for inhibition at 33 µM: enzyme inhibition at compound concentration of 33 uM; for inhibition at 100 µM: read-out: % inh@100, enzyme inhibition at compound concentration of 100 uM
Description: The coding sequence of NS5b protein was cloned by PCR from pFKI389luc/NS3-3′/ET as described by Lohmann, V., et al. (1999) Science 285, 110-113 using the following primers: […]
The cloned fragment was missing the C terminus 21 amino acid residues. The cloned fragment was inserted into an IPTG-inducible expression plasmid that provided an epitope tag (His)6 at the carboxy terminus of the protein.
The recombinant enzyme was expressed in XL-1 cells and after induction of expression, the protein was purified using affinity chromatography on a nickel-NTA column. Storage condition was 10 mM Tris-HCl pH 7.5, 50 mM NaCl, 0.1 mM EDTA, 1 mM DTT, 20% glycerol at −20° C.
The polymerase activity was assayed by measuring incorporation of radiolabeled UTP into a RNA product using a biotinylated, heteropolymeric template, which included a portion of the HCV genome. Typically, the assay mixture (50 μL) contained 10 mM Tris-HCl (pH 7.5), 5 mM MgCl2, 0.2 mM EDTA, 10 mM KCl, 1 unit/μL RNAsin, 1 mM DTT, 10 μM each of NTP, including [^3H]-UTP, and 10 ng/μL heteropolymeric template. Test compounds were initially dissolved in 100% DMSO and further diluted in aqueous buffer containing 5% DMSO. Typically, compounds were tested at concentrations between 1 nM and 100 μM. Reactions were started with addition of enzyme and allowed to continue at 37° C. for 2 hours. Reactions were quenched with 8 μL of 100 mM EDTA and reaction mixtures (30 μL) were transferred to streptavidin-coated scintillation proximity microtiter plates (FlashPlates) and incubated at 4° C. overnight. Incorporation of radioactivity was determined by scintillation counting.
Shown in Table IX below are the values for enzyme inhibition measured at compound concentrations of 100 and 33 uM, (% inh@[…] and % inh@33, respectively). The percent inhibition values are calculated from the differential incorporation of radioactivity compared to a control reaction without compound: % inhibition=100−[(CountsINH−CountsBKG)/CountsCTRL−CountsBKG)×100 where CountsINH is the signal of the testwell with inhibitor, CountsBKG is the background signal and CountsCTRL is the signal of a testwell without inhibitor.

O=C(O)c1ccc2c(c1)nc(-c1ccc3nc(-c4ccccc4)cnc3c1)n2C1CCCCC1 [Compound 203, 1-Cyclohexyl-2-(2-phenyl-quinoxalin-6-yl)-1H-benzoimidazole-5-carboxylic acid]
inhibition at 33 µM: 75%
inhibition at 100 µM: 97.5%

O=C(O)c1ccc2c(c1)nc(-c1ccc3nc(-c4cc(C(=O)N5CCCC5)ccc4-c4ccc(Cl)cc4)ccc3c1)n2C1CCCCC1 [Compound 204, 2-{2-[4′-Chloro-4-(pyrrolidine-1-carbonyl)-biphen-2-yl]-quinolin-6-yl}-1-cyclohexyl-1H-benzoimidazole-5-carboxylic acid]
inhibition at 33 µM: 99.7%
inhibition at 100 µM: 101%

O=C(O)c1ccc2c(c1)nc(-c1ccc3ncc(-c4ccccc4)nc3c1)n2C1CCCCC1 [Compound 205, 1-Cyclohexyl-2-(3-phenyl-quinoxalin-6-yl)-1H-benzoimidazole-5-carboxylic acid]
inhibition at 33 µM: 84.4%
inhibition at 100 µM: 99%

O=C(O)c1ccc2c(c1)nc(-c1ccc3ncc(-c4ccccc4)cc3c1)n2C1CCCCC1 [Compound 206, 1-Cyclohexyl-2-(3-phenyl-quinolin-6-yl)-1H-benzoimidazole-5-carboxylic acid]
inhibition at 33 µM: 94.2%
inhibition at 100 µM: 96.9%

O=C(O)c1ccc2c(c1)nc(-c1ccc3c(c1)CCC(c1ccccc1)N3)n2C1CCCCC1 (stereo not shown) [Compound 215, 1-Cyclohexyl-2-(2-phenyl-1,2,3,4-tetrahydro-quinolin-6-yl)-1H-benzoimidazole-5-carboxylic acid]
inhibition at 33 µM: 99.2%
inhibition at 100 µM: 101%

Cc1ccc2cc(-c3nc4cc(C(=O)N[C@@H](Cc5c[nH]c6ccc(O)cc56)C(=O)O)ccc4n3C3CCCCC3)ccc2n1 [Compound 230, 2-{[1-Cyclohexyl-2-(2-methyl-quinolin-6-yl)-1H-benzoimidazole-5-carbonyl]-amino}-3-(5-hydroxy-1H-indol-3-yl)-propionic acid]
inhibition at 33 µM: 92.7%
inhibition at 100 µM: 98.2%

O=C(N[C@@H](CO)C(=O)O)c1ccc2c(c1)nc(-c1ccc3nc(-c4ccccc4)ccc3c1)n2C1CCCCC1 [Compound 231, 2-{[1-Cyclohexyl-2-(2-phenyl-quinolin-6-yl)-1H-benzoimidazole-5-carbonyl]-amino}-3-hydroxy-propionic acid]
inhibition at 33 µM: 67%
inhibition at 100 µM: 97.5%

NCCCC[C@H](NC(=O)c1ccc2c(c1)nc(-c1ccc3nc(-c4ccccc4)ccc3c1)n2C1CCCCC1)C(=O)O [Compound 232, 6-Amino-2-{[1-cyclohexyl-2-(2-phenyl-quinolin-6-yl)-1H-benzoimidazole-5-carbonyl]-amino}-hexanoic acid]
inhibition at 33 µM: 60.5%
inhibition at 100 µM: 80.2%

O=C(O)[C@@H]1CCCN1C(=O)c1ccc2c(c1)nc(-c1ccc3nc(-c4ccccc4)ccc3c1)n2C1CCCCC1 [Compound 233, 1-[1-Cyclohexyl-2-(2-phenyl-quinolin-6-yl)-1H-benzoimidazole-5-carbonyl]-pyrrolidine-2-carboxylic acid]
inhibition at 33 µM: 50%
inhibition at 100 µM: 88.2%

O=C(N[C@@H](Cc1c[nH]c2ccc(O)cc12)C(=O)O)c1ccc2c(c1)nc(-c1ccc3nc(-c4ccccc4)cnc3c1)n2C1CCCCC1 [Compound 234, 2-{[1-Cyclohexyl-2-(2-phenyl-quinoxalin-6-yl)-1H-benzoimidazole-5-carbonyl]-amino}-3-(5-hydroxy-1H-indol-3-yl)-propionic acid]
inhibition at 33 µM: 98.6%
inhibition at 100 µM: 100%

O=C(N[C@@H](Cc1c[nH]c2ccc(O)cc12)C(=O)O)c1ccc2c(c1)nc(-c1ccc3nc(-c4cc(C(=O)N5CCCC5)ccc4-c4ccc(Cl)cc4)ccc3c1)n2C1CCCCC1 [Compound 235, 2-[(2-{2-[4′-Chloro-4-(pyrrolidine-1-carbonyl)-biphen-2-yl]-quinolin-6-yl}-1-cyclohexyl-1H-benzoimidazole-5-carbonyl)-amino]-3-(5-hydroxy-1H-indol-3-yl)-propionic acid]
inhibition at 33 µM: 99.1%
inhibition at 100 µM: 99.5%

O=C(N[C@@H](Cc1c[nH]c2ccc(O)cc12)C(=O)O)c1ccc2c(c1)nc(-c1ccc3ncc(-c4ccccc4)nc3c1)n2C1CCCCC1 [Compound 236, 2-{[1-Cyclohexyl-2-(3-phenyl-quinoxalin-6-yl)-1H-benzoimidazole-5-carbonyl]-amino}-3-(5-hydroxy-1H-indol-3-yl)-propionic acid]
inhibition at 33 µM: 99.2%
inhibition at 100 µM: 99.2%

O=C(O)CC[C@H](NC(=O)c1ccc2c(c1)nc(-c1ccc3nc(-c4ccccc4)ccc3c1)n2C1CCCCC1)C(=O)O [Compound 237, 2-{[1-Cyclohexyl-2-(2-phenyl-quinolin-6-yl)-1H-benzoimidazole-5-carbonyl]-amino}-pentanedioic acid]
inhibition at 33 µM: 79.7%
inhibition at 100 µM: 95.6%

O=C(N[C@@H](Cc1c[nH]c2ccc(O)cc12)C(=O)O)c1ccc2c(c1)nc(-c1ccc3ncc(-c4ccccc4)cc3c1)n2C1CCCCC1 [Compound 238, 2-{[1-Cyclohexyl-2-(3-phenyl-quinolin-6-yl)-1H-benzoimidazole-5-carbonyl]-amino}-3-(5-hydroxy-1H-indol-3-yl)-propionic acid]
inhibition at 33 µM: 97.6%
inhibition at 100 µM: 98.4%

O=C(O)CCNC(=O)c1ccc2c(c1)nc(-c1ccc3nc(-c4ccccc4)cnc3c1)n2C1CCCCC1 [Compound 239, 3-{[1-Cyclohexyl-2-(2-phenyl-quinoxalin-6-yl)-1H-benzoimidazole-5-carbonyl]-amino}-propionic acid]
inhibition at 33 µM: 49.1%
inhibition at 100 µM: 70.2%

O=C(N[C@@H](Cc1ccc(-c2ccccc2)cc1)C(=O)O)c1ccc2c(c1)nc(-c1ccc3nc(-c4ccccc4)cnc3c1)n2C1CCCCC1 [Compound 240, 3-Biphenyl-4-yl-2-{[1-cyclohexyl-2-(2-phenyl-quinoxalin-6-yl)-1H-benzoimidazole-5-carbonyl]-amino}propionic acid]
inhibition at 33 µM: 95.7%
inhibition at 100 µM: 96.1%

O=C(N[C@@H](Cc1ccc(C(=O)c2ccccc2)cc1)C(=O)O)c1ccc2c(c1)nc(-c1ccc3nc(-c4ccccc4)cnc3c1)n2C1CCCCC1 [Compound 241, 3-(4-Benzoyl-phenyl)-2-{[1-cyclohexyl-2-(2-phenyl-quinoxalin-6-yl)-1H-benzoimidazole-5-carbonyl]-amino}-propionic acid]
inhibition at 33 µM: 98%
inhibition at 100 µM: 98.4%

O=C(N[C@@H](CC1CCCCC1)C(=O)O)c1ccc2c(c1)nc(-c1ccc3nc(-c4ccccc4)cnc3c1)n2C1CCCCC1 [Compound 242, 3-Cyclohexyl-2-{[1-cyclohexyl-2-(2-phenyl-quinoxalin-6-yl)-1H-benzoimidazole-5-carbonyl]-amino}-propionic acid]
inhibition at 33 µM: 97.4%
inhibition at 100 µM: 97%

O=C(N[C@H](C(=O)O)C1CCCCC1)c1ccc2c(c1)nc(-c1ccc3nc(-c4ccccc4)cnc3c1)n2C1CCCCC1 [Compound 243, Cyclohexyl-{[1-cyclohexyl-2-(2-phenyl-quinoxalin-6-yl)-1H-benzoimidazole-5-carbonyl]-amino}-acetic acid]
inhibition at 33 µM: 96%
inhibition at 100 µM: 98.1%

O=C(O)C[C@H](NC(=O)c1ccc2c(c1)nc(-c1ccc3nc(-c4ccccc4)cnc3c1)n2C1CCCCC1)C(=O)O [Compound 244, 2-{[1-Cyclohexyl-2-(2-phenyl-quinoxalin-6-yl)-1H-benzoimidazole-5-carbonyl]-amino}-succinic acid]
inhibition at 33 µM: 75.7%
inhibition at 100 µM: 97%

O=C(O)CC[C@H](NC(=O)c1ccc2c(c1)nc(-c1ccc3nc(-c4ccccc4)cnc3c1)n2C1CCCCC1)C(=O)O [Compound 245, 2-{[1-Cyclohexyl-2-(2-phenyl-quinoxalin-6-yl)-1H-benzoimidazole-5-carbonyl]-amino}-pentanedioic acid]
inhibition at 33 µM: 73.2%
inhibition at 100 µM: 97.4%

O=C(N[C@@H](Cc1ccccc1)C(=O)O)c1ccc2c(c1)nc(-c1ccc3nc(-c4ccccc4)cnc3c1)n2C1CCCCC1 [Compound 246, 2-{[1-Cyclohexyl-2-(2-phenyl-quinoxalin-6-yl)-1H-benzoimidazole-5-carbonyl]-amino}-3-phenyl-propionic acid]
inhibition at 33 µM: 95.9%
inhibition at 100 µM: 96.4%

O=C(N[C@@H](Cc1c[nH]cn1)C(=O)O)c1ccc2c(c1)nc(-c1ccc3nc(-c4ccccc4)cnc3c1)n2C1CCCCC1 [Compound 247, 2-{[1-Cyclohexyl-2-(2-phenyl-quinoxalin-6-yl)-1H-benzoimidazole-5-carbonyl]-amino}-3-(1H-imidazol-4-yl)-propionic acid]
inhibition at 33 µM: 66.8%
inhibition at 100 µM: 94.2%
